Test results from patent publication US12247045B2, “MAP4K4 inhibitors” (Imperial College Innovations Limited, priority 2018, dated 2025).
Like-named read-outs stand apart in the source and are kept apart here.

Experiments:
Assay type in all cases: biochemical
[1] = target: T1, human MAP4K4 kinase domain (Homo sapiens, UniProt O95819); assay: MAP4K4 kinase activity, CisBio HTRF Transcreener ADP assay
T1 construct: 0.5 nM human MAP4K4 kinase domain (Invitrogen); purchased Invitrogen
Procedure, shortened: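 HTRF Transcreener ADP read-out (665/620 nm ratio) of ADP formed by 0.5 nM kinase domain with 1 μM biotin-myelin basic protein substrate and ATP at Km (10 μM), 1% DMSO, 2 h reaction. IC50 values binned as A ≤100 nM, B 100 nM–1 μM, C >1 μM.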

[2] = target: KHS/MAP4K5 (Homo sapiens, UniProt Q9Y4K4); assay: Kinase selectivity panel, KHS/MAP4K5
Chain of KHS/MAP4K5 (Q9Y4K4 whole entry): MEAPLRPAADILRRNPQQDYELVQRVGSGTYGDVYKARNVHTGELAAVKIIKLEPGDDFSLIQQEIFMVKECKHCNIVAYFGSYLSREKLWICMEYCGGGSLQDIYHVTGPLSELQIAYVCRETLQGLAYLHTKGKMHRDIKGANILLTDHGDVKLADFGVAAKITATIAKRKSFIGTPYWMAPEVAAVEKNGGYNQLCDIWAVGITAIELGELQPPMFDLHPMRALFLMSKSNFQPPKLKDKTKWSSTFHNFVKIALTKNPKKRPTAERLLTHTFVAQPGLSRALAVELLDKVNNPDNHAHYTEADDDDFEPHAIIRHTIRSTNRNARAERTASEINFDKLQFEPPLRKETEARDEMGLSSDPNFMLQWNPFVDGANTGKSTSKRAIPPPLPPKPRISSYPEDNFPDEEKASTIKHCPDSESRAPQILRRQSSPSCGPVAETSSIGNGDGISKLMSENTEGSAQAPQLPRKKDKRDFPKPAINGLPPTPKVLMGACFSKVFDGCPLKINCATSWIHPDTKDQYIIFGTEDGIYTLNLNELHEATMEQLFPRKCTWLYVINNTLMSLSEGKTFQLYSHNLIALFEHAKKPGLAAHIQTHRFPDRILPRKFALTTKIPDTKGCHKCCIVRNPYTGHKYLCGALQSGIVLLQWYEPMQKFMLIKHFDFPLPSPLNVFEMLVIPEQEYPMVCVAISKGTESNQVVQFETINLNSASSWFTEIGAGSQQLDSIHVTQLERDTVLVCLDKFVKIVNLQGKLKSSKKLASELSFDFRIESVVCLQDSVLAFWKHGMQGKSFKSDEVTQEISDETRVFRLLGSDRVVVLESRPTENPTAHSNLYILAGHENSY
From the text: (§1) The data in Table 42 also provides the fold selectivity of the two compounds in favour of MAP4K4 over the tested kinase. The fold selectivity is indicated in parenthesis.

[3] = target: MLK1/MAP3K9 (Homo sapiens, UniProt P80192); assay: Kinase selectivity panel, MLK1/MAP3K9
Chain of MLK1/MAP3K9 (P80192 whole entry): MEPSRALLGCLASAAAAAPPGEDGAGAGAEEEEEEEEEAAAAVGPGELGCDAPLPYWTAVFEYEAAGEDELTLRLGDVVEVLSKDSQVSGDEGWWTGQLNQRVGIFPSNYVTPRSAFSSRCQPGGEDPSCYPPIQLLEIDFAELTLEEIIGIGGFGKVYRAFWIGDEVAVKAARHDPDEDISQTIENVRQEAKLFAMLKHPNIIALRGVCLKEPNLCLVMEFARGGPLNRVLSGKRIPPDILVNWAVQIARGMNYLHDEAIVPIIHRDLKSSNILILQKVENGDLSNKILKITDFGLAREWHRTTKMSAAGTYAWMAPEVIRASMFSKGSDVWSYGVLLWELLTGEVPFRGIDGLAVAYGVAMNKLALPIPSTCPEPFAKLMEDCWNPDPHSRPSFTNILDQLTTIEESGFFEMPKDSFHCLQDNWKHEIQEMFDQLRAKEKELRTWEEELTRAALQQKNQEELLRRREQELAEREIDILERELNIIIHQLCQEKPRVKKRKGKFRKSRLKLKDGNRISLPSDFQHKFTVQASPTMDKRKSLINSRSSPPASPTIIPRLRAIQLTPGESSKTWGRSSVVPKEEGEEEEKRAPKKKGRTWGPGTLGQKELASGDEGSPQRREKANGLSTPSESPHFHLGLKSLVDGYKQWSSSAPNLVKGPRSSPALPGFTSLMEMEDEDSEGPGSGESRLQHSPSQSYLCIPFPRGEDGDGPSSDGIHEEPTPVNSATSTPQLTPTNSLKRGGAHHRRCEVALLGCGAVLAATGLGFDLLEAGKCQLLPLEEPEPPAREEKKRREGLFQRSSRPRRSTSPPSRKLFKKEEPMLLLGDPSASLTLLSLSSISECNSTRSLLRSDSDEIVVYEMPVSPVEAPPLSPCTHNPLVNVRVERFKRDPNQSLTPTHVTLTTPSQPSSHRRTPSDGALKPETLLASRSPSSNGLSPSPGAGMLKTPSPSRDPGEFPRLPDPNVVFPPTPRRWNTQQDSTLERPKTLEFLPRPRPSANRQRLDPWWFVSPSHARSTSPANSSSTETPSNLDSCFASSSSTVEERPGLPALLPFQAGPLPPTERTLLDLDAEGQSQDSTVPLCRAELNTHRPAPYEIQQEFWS
From the text: as §1

[4] = target: MLK3/MAP3K11 (Homo sapiens, UniProt Q16584); assay: Kinase selectivity panel, MLK3/MAP3K11
Chain of MLK3/MAP3K11 (Q16584 whole entry): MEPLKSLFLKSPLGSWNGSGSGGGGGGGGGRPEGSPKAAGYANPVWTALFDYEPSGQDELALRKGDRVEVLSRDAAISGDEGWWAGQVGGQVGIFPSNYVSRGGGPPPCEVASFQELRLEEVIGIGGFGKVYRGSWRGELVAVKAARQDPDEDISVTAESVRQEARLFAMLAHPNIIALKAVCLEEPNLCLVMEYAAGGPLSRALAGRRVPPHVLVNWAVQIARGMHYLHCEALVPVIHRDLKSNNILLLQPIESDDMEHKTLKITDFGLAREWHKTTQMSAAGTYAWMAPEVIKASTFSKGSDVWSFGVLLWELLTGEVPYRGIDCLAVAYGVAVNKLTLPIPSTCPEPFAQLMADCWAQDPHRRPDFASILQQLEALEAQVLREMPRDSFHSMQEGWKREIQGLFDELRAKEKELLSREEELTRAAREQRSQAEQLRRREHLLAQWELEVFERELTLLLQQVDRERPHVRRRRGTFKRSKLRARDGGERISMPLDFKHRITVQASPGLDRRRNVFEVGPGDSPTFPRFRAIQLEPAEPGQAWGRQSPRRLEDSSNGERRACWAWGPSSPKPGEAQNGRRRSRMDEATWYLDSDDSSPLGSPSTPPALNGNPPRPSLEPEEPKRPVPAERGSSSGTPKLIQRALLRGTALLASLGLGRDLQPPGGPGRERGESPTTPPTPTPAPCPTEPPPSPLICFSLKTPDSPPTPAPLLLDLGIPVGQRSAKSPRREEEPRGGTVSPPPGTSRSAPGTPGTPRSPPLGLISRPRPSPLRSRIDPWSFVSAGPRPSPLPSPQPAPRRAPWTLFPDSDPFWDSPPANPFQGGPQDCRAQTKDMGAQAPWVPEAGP
From the text: as §1

T1 sequence (O95819 25-289 limits assumed): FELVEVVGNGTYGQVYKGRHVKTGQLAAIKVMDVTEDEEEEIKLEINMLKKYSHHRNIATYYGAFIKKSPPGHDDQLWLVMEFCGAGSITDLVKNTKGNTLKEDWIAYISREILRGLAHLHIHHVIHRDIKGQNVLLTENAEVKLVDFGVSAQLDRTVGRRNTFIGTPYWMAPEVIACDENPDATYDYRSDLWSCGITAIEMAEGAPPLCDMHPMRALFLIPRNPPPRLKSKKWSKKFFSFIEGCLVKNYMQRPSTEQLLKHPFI

CC(C)(O)CCOc1ccc(-c2cn(-c3cccnc3)c3nc[nH]c(=O)c23)cc1 [Ex-78, 5-(4-(3-hydroxy-3-methylbutoxy)phenyl)-7-(pyridin-3-yl)-3,7-dihydro-4H-pyrrolo[2,3-d]pyrimidin-4-one]
IC50 ([1]; IC50 category, ATP at Km (10 μM), 0.5 nM kinase domain, 2 h, read-out: MAP4K4): ≤ 100 nM
IC50 ([1]; read-out: pIC50 MAP4K4 (converted)): 31.6 nM
fold selectivity MAP4K4 over KHS/MAP4K5 ([2]; in favour of MAP4K4): (10) fold
IC50 ([2]; read-out: pIC50 KHS/MAP4K5 (converted)): 316 nM
fold selectivity MAP4K4 over MLK1/MAP3K9 ([3]; in favour of MAP4K4): (4) fold
IC50 ([3]; read-out: pIC50 MLK1/MAP3K9 (converted)): 126 nM
fold selectivity MAP4K4 over MLK3/MAP3K11 ([4]; in favour of MAP4K4): (8) fold
IC50 ([4]; read-out: pIC50 MLK3/MAP3K11 (converted)): 251 nM
